As a reminder, the Kd is a measure of binding affinity in units of concentration. By IC50 is commonly meant the concentration needed to halve the response being measured.

This is an account of results in patent US11155586B2, “Cystine knot scaffold platform” (Genentech, Inc., priority 2015, dated 2021).

In experiment [1] the target is hVEGF-A mutants (Y21A, K48A, Q89A, F17A/M81A). In words: SPR binding assay, hVEGF-A mutants. Also noted: species or system human; kd: unit not given here. Here is the method:
Depending on the format of the assay either a streptavidin sensor (SA) or a dextran-coated (CM5) sensor was utilized as described below.
For use with the SA sensor, VEGF-A was first biotinylated (no more than 2 biotin/VEGF-A) by incubating the protein with EZ-link NHS-PEG4-Biotin (Pierce) in a 1:1.5 molar ratio respectively, in PBS for 2 hours on ice. Reaction was then quenched by addition of 10 molar excess of Glycine pH 8.0 and the sample was buffer exchanged into PBS using an Amicon 0.5 mL 3000 MWCO ultra-centrifugal filters (EMD Millipore). The biotinylation state of the protein was verified by LC-MS analysis. Biotinylated VEGF-A was then captured on the surface until a resonance unit (RU) signal of about ˜400. For immobilization of VEGF-A on CM5 sensor, the surface was first activated with a mixture of N-ethyl-N′-(3-dimethylaminopropyl)carbodiimide hydrochloride and N-hydroxysuccinimide (EDC/NHS) according to the supplier instructions. VEGF-A was then diluted into coupling buffer (0.1 M Acetate Buffer, pH 5.0) and injected until the signal reached about ˜400 RU followed by a wash with 1 M ethanolamine pH 8.0 to quench remaining activated sites.
Following the capture step, a series of the peptide concentrations were prepared in HBS-EP buffer with matching DMSO concentrations to 0.1% and injected at a flow rate of […]. The resulting sensorgrams were then analyzed using a 1:1 binding model to obtain kinetic data and affinities using Scrubber 2.0 (BioLogic Software).
The binding interface of VEGF_CKP9.54.90 on VEGF-A overlaps with that of the natural receptors and G6.31 antibody (FIGS. 7 and 8). […] However, K48A mutation enhanced the binding of VEGF_CKP9.54.90 by ˜2-3 fold, a behavior that is similar to that observed with the G6.31 antibody (Fuh et al. (2006) J. Biol. Chem. 281, 6625-6631).
Background: SPR reads the build-up and loss of mass on a sensor chip optically.

The next experiment deals with trypsin. Description: Trypsin protease activity, peptide substrate cleavage assay. In kind it is biochemical. The conditions noted are these: FIG. 3.
The next experiment addresses T1, hVEGF-A (Homo sapiens, UniProt P15692).
T1 sequence (P15692 207-395): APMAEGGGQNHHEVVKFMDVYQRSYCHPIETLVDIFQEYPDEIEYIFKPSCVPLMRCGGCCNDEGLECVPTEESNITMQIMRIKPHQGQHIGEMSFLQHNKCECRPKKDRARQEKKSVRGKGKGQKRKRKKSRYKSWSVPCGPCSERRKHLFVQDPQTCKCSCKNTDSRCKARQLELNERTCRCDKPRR
In words: KDR-CHO VEGF assay to determine cellular IC50 (VEGF mediated Tyr phosphorylation of KDR). In kind it is cell-based.

The target in another experiment is T2, hVEGF-A (8-109) (Homo sapiens, UniProt P15692).
T2 sequence (P15692 34-135 isoform P15692-4): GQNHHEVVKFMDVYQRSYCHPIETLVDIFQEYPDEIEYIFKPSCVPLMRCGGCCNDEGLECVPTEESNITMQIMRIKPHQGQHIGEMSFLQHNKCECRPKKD
Description: SPR binding assay (BIACORE 3000, 37° C.). In short, it runs like this: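 VEGF-A, biotinylated and captured on streptavidin sensor or amine-coupled to CM5 at pH 5.0, to about 400 RU. Peptide concentration series in HBS-EP with 0.1% DMSO injected at […]; kinetics and affinities from 1:1 binding model fits.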

Positions of bridges follow the written chain, without caps; N, C: chain ends. Residues, ends and D or L forms follow the SMILES beside them.

As to `CC[C@H](C)[C@@H]1NC(=O)[C@H](CC(N)=O)NC(=O)[C@@H](NC(=O)CN)CSSC[C@@H](C(=O)N[C@H](C(=O)N[C@H]2CSSC[C@@H](C(=O)NCC(=O)O)NC(=O)[C@H](CO)NC(=O)[C@H](CCC(N)=O)NC(=O)[C@H](Cc3ccc(O)cc3)NC(=O)[C@H](Cc3ccc(O)cc3)NC(=O)[C@H](CCC(N)=O)NC2=O)C(C)C)NC(=O)CNC(=O)[C@H](C)NC(=O)[C@H](CC(C)C)NC(=O)[C@@H]2CSSC[C@H](NC(=O)CNC(=O)[C@H](Cc3c[nH]c4ccccc34)NC(=O)[C@H](Cc3ccccc3)NC(=O)[C@@H]3CCCN3C(=O)[C@H](CC(C)C)NC(=O)[C@H](CCSC)NC1=O)C(=O)N[C@@H](CCCCN)C(=O)N[C@@H](CCC(N)=O)C(=O)N[C@@H](CC(=O)O)C(=O)N[C@@H](CO)C(=O)N[C@@H](CC(=O)O)C(=O)N2` [VEGF_CKP9.54] (H-GCNIMLPFWGCKQDSDCLAGCVCQYYQSCG-OH; disulfide 2-21, 11-17, 23-29 (inferred); N-terminus and C-terminus assumed), the Kd was 22 nM in experiment [1] (hVEGF-A mutant K48A); 1880 nM in experiment [1] (hVEGF-A mutant Q89A); 317 nM in experiment [1] (hVEGF-A mutant Y21A); 55 nM on hVEGF-A (8-109) (KD (nM), hVEGF-A WT); 176 nM at hVEGF-A (8-109) (KD (nM), human 8-109, Table 30); 44 ± 6 nM at hVEGF-A (8-109) (KD, Table 37, surface plasmon resonance, VEGF-A). Further, the values for the ka in experiment [1] (hVEGF-A mutant K48A), in experiment [1] (hVEGF-A mutant Q89A) and in experiment [1] (hVEGF-A mutant Y21A) were 2.64 × 10^6, 3.37 × 10^5 and 6.63 × 10^5, respectively. Further, the kd in experiment [1] (hVEGF-A mutant K48A) is recorded as 0.0587; in experiment [1] (hVEGF-A mutant Q89A) it was 0.7932; in experiment [1] (hVEGF-A mutant Y21A), 0.2101; at hVEGF-A (8-109) (Table 37, surface plasmon resonance, VEGF-A), 2.3; on hVEGF-A (8-109) (hVEGF-A WT), 0.2349; at hVEGF-A (8-109) (human 8-109, Table 30), 2.18 × 10^−1. Moreover, the “inhibition of trypsin protease activity” value in the experiment on trypsin was “do not inhibit”. Also, the 50% inhibitory concentration (IC50) at hVEGF-A (Cellular IC50, Table 25) was 188 nM; against hVEGF-A (Cellular IC50, Table 28), 188 nM; on hVEGF-A (IC50 against VEGF-A in in vitro and cellular assays, Table 25, improved potency compared to parent VEGF-CKP9) it was 100 to 200 nM.
